Results published in ChEMBL document CHEMBL2401637, “The identification of novel p38α isoform selective kinase inhibitors having an unprecedented p38α binding mode” (Bioorg Med Chem Lett, 2013).

Assay: Aqueous solubility of the compound at pH 6.5
Type: physicochemical

solubility, < 1 µg/mL:
Cc1ccc(C(=O)NC2CC2)cc1NC(=O)c1ccc(-c2ccccc2Cl)s1
Cc1ccc(C(=O)NC2CC2)cc1NC(=O)c1ccc(-c2ccc(Cl)cc2)s1
Cc1ccc(C(=O)NC2CC2)cc1NC(=O)c1ccc(-c2cccc(Cl)c2)s1
